# Test results published in US20240018123A1, “COMPOUND FOR INHIBITING OR DISINTEGRATING ANDROGEN RECEPTOR, AND PHARMACEUTICAL USE THEREOF” (KOREA RESEARCH INSTITUTE OF CHEMICAL TECHNOLOGY, priority 2020, published 2024).
# Columns and labels:
# VCaP cells = test: Cytotoxicity assessment (Cell-titer-glo cell viability), VCaP; settings: read-out: VCaP (CC50); VCaP cells, 6 days of treatment, Cell-titer-glo, vs DMSO
# Description: In order to evaluate the androgen receptor (AR) cytotoxicity of the compounds according to the present invention, the following experiment was conducted. Specifically, 1.5×10^3 (LNCaP) or 4×10^3 (VCaP, 22RV1), respectively, of LNCaP, VCaP, and 22RV1 cells were injected into each well of a 96-well plate. The next day, each well was treated with the compound at a final concentration of 3 nM, 10 nM, 30 nM, 100 nM, 300 nM, 1 μM, 3 μM, and 10 μM. […] After 6 days of treatment, Cell-titer-glo (promega) was treated and reacted for 10 minutes, and cell viability was measured with a multimode plate reader (PerkinElmer, Inc.), and the change was quantified compared to when DMSO was treated.
# LNCaP cells = test: Cytotoxicity assessment (Cell-titer-glo cell viability), LNCaP; settings: read-out: LNCAP (CC50); LNCaP cells, 6 days of treatment, Cell-titer-glo, vs DMSO
Structure (SMILES),CC50 (VCaP cells),CC50 (LNCaP cells)
"CC1(C)C(NC(=O)c2ccc(C#CCC3CCN(CC4CCN(C(=O)C5CN(c6ccc7nnn(C8CCC(=O)NC8=O)c(=O)c7c6)C5)CC4)CC3)cc2)C(C)(C)C1Oc1ccc(C#N)c(Cl)c1 (centres unmarked) [Example 117, N-((1r,3r)-3-(3-chloro-4-cyanophenoxy)-2,2,4,4-tetramethylcyclobutyl)-4-(3-(1-((1-(1-(3-(2,6-dioxopiperidin-3-yl)-4-oxo-3,4-dihydrobenzo[d][1,2,3]triazin-6-yl)azetidine-3-carbonyl)piperidin-4-yl)methyl)piperidin-4-yl)prop-1-yn-1-yl)benzamide]",13 nM,166 nM
"CC1(C)C(NC(=O)c2ccc(CCN3CC4CN(C(=O)C5CN(c6ccc7nnn(C8CCC(=O)NC8=O)c(=O)c7c6)C5)CC4C3)cc2)C(C)(C)C1Oc1ccc(C#N)c(Cl)c1 (centres unmarked) [Example 94, N-((1r,3r)-3-(3-chloro-4-cyanophenoxy)-2,2,4,4-tetramethylcyclobutyl)-4-(2-(5-(1-(3-(2,6-dioxopiperidin-3-yl)-4-oxo-3,4-dihydrobenzo[d][1,2,3]triazin-6-yl)azetidine-3-carbonyl)hexahydropyrrolo[3,4-c]pyrrol-2(1H)-yl)ethyl)benzamide]",7.84 nM,108 nM
"CC1(C)C(NC(=O)c2ccc(C#CC3CCN(CC4CCN(C(=O)C5CCN(c6ccc7nnn(C8CCC(=O)NC8=O)c(=O)c7c6)CC5)CC4)CC3)cc2)C(C)(C)C1Oc1ccc(C#N)c(Cl)c1 (centres unmarked) [Example 97, N-((1r,3r)-3-(3-chloro-4-cyanophenoxy)-2,2,4,4-tetramethylcyclobutyl)-4-((1-((1-(1-(3-(2,6-dioxopiperidin-3-yl)-4-oxo-3,4-dihydrobenzo[d][1,2,3]triazin-6-yl)piperidine-4-carbonyl)piperidin-4-yl)methyl)piperidin-4-yl)ethynyl)benzamide]",2.08 nM,76.7 nM
"CC1(C)C(NC(=O)c2ccc(CCN3CCN(CC4CCN(c5ccc6nnn(C7CCC(=O)NC7=O)c(=O)c6c5)CC4)CC3)cc2)C(C)(C)C1Oc1ccc(C#N)c(Cl)c1 (centres unmarked) [Example 111, N-((1r,3r)-3-(3-chloro-4-cyanophenoxy)-2,2,4,4-tetramethylcyclobutyl)-4-(2-(4-((1-(3-(2,6-dioxopiperidin-3-yl)-4-oxo-3,4-dihydrobenzo[d][1,2,3]triazin-6-yl)piperidin-4-yl)methyl)piperazin-1-yl)ethyl)benzamide]",2.29 nM,37.2 nM
"CC1(C)C(NC(=O)c2ccc(CCN3CCN(CC4CCN(C(=O)CNc5ccc6nnn(C7CCC(=O)NC7=O)c(=O)c6c5)CC4)CC3)cc2)C(C)(C)C1Oc1ccc(C#N)c(Cl)c1 (centres unmarked) [Example 110, N-((1r,3r)-3-(3-chloro-4-cyanophenoxy)-2,2,4,4-tetramethylcyclobutyl)-4-(2-(4-((1-((3-(2,6-dioxopiperidin-3-yl)-4-oxo-3,4-dihydrobenzo[d][1,2,3]triazin-6-yl)glycyl)piperidin-4-yl)methyl)piperazin-1-yl)ethyl)benzamide]",3.65 nM,456 nM
"CC1(C)C(NC(=O)c2ccc(-n3cc(CC4CCN(c5ccc6nnn(C7CCC(=O)NC7=O)c(=O)c6c5)CC4)nn3)cc2)C(C)(C)C1Oc1ccc(C#N)c(Cl)c1 (centres unmarked) [Example 103, N-((1r,3r)-3-(3-chloro-4-cyanophenoxy)-2,2,4,4-tetramethylcyclobutyl)-4-(4-((1-(3-(2,6-dioxopiperidin-3-yl)-4-oxo-3,4-dihydrobenzo[d][1,2,3]triazin-6-yl)piperidin-4-yl)methyl)-1H-1,2,3-triazol-1-yl)benzamide]",12.3 nM,144 nM
"CC1(C)C(NC(=O)c2ccc(-c3cnn(C4CCN(CC5CCN(c6ccc7nnn(C8CCC(=O)NC8=O)c(=O)c7c6)CC5)CC4)c3)nc2)C(C)(C)C1Oc1ccc(C#N)c(Cl)c1 (centres unmarked) [Example 115, N-((1r,3r)-3-(3-chloro-4-cyanophenoxy)-2,2,4,4-tetramethylcyclobutyl)-6-(1-(1-((1-(3-(2,6-dioxopiperidin-3-yl)-4-oxo-3,4-dihydrobenzo[d][1,2,3]triazin-6-yl)piperidin-4-yl)methyl)piperidin-4-yl)-1H-pyrazol-4-yl)nicotinamide]",38 nM,182 nM
